Tests used:
bovine tubulin = test: In vitro tubulin polymerization assay (turbidity at 340 nm); type: biochemical; settings: 10 μM compound, 30 minute data point, vs 1% DMSO control
Outline: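 Bovine tubulin (97%, <3% MAPs) at 3 mg/ml final in G-PEM pH 7 with 1 mM GTP and 5% glycerol, added cold to compound wells at 37° C (1% DMSO final). A340 read each minute for 30 min; percent inhibition from 30-min point versus DMSO control.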

[1] = system: A431 human cancer cell line; test: Sulphorhodamine B (SRB) growth inhibition assay; type: cell-based; settings: A-431, A431 cells, 48 hours, read-out: SRB Assay: μM required to inhibit tumor cell growth by 50% (GI50)
Experimental: The in vitro growth inhibition activity of the compounds was determined by the Sulphorhodamine B assay. (Skehan P, Storeng R, Scudiero D, Monks A, McMahon J, Vistica D, Warren J T, Bokesch H, Kenney S, Boyd M R. New colorimetric cytotoxicity assay for anticancer-drug screening. J Natl Cancer Inst 82, 1107-1112, 1990). Sulphorhodamine B binds to basic amino acids and stains proteins which can be eluted and detected spectrophotometically by measuring absorbance at 515 nm. The absorbance was indicative of the total protein content of the cells fixed to the walls of the plate well at a given time by trichloroacetic acid, which is a measure of the viable cell concentration.
The in vitro growth inhibition activity of the compounds was determined using a Sulphorhodamine B assay. See, Skehan et al., “New colorimetric cytotoxicity assay for anticancer-drug screening,” J. Natl. Cancer Inst., 82, 1107-1112, (1990). Sulphorhodamine B binds to basic amino acids and stains proteins which can be eluted and detected spectrophotometically by measuring absorbance at 515 nm. The absorbance indicates the total protein content of the cells fixed to the walls of the plate well at a given time by trichloroacetic acid, which is a measure of the viable cell concentration.
The reagents used in the assay can be purchased from commercial sources and include Sulphorhodamine B 0.4% (w/v) in 1% (v/v) acetic acid (Sigma Cat#S-1402); trichloroacetic acid 50% (w/v) in deionized water, working solution (Sigma Cat#T-9159); and trizma base (Tris) 10 mM working solution, pH 7.5 (Sigma Cat#T-7693).
The procedure was cared out over four days. In Day 1, the cells were seeded in a seed 10,000 cells/100 μL/well in 96 well plate in duplicates as per template. Also, seed cells in extra plate for time zero (To plate). Thereafter, the cells were incubated for 24 hours at 37° C. with 5% CO2.
On Day 2, the test compound was added to the cells at five log doses from 100 μM to 0.01 μM (Volume of addition=100 μL in 1% DMSO for all compound concentrations, Control treatment=1% DMSO).
The compounds were prepared by weighing the test compounds in 1.5 ml eppendorf tubes and calculating the volume of DMSO to be added to bring the concentration of the compound to 20 mM. Thereafter, a 20 mM stock was made and diluted by four 10 fold dilutions in DMSO to get 2, 0.2, 0.02 and 0.002 mM solutions. Each solution was diluted 100 times (10 μL to 1 ml medium) and a further addition to the culture plate (100 μL) to half the concentration of cells was made. The final well concentration for 20 mM stock was 100 μM and similarly with other test concentrations.
The cells were incubated for 48 hours at 37° C. with 5% CO2 and terminated by adding 50 μL of 50% cold trichloroacetic acid (10% to final). Thereafter, the cells were incubated for one hour at 4° C.
On Day 4, the cells were fixed to the wells by the addition of 50 μL of 50% cold trichloroacetic acid (10% to final) and incubated for 1 hour at 4° C. The supernatant was discarded by force inverting the plate into the sink followed by washing thrice with tap water and the plates are then air-dried. 100 μL SRB (0.4% in 1% acetic acid) was added to each well and the plates were incubated for 10 minutes at room temperature. Unbound dye was removed by force inverting the plate into the sink and washing thrice with 1% acetic acid. Thereafter, the plates were allowed to air dry.
Bound SRB was solubilized with 100 μL of 10 mM Tris, pH 7.4 and the absorbance was measured at a wavelength of 515 nm.
A sample set of calculations was performed as follows. The percentage growth was calculated by T-To/C-To X 100 if T>To and T-To/To X 100 if T<To, wherein T is Test OD (with compound), C is Control OD, To is Time Zero OD (cell growth at the time of drug addition). […]

SMILES | GI50 [1] | Tubulin Assay: percent inhibition at 10 μM based on 30 minute data (bovine tubulin)
COc1cc(Nc2nnc(-c3cccnc3Nc3cc(OC)cc(OC)c3)o2)cc(OC)c1 [Compound 187, (3,5-Dimethoxy-phenyl)-{3-[5-(3,5-dimethoxy-phenylamino)-[1,3,4]oxadiazol-2-yl]-pyridin-2-yl}-amine] | 80 µM | 48%
c1ccc(-c2nnc(Nc3ccc4c(c3)OCO4)o2)c(NCc2ccncc2)c1 [Compound 225, Benzo[1,3]dioxol-5-yl-(5-{2-[(pyridin-4-ylmethyl)-amino]-phenyl}-[1,3,4]oxadiazol-2-yl)-amine] | 15 µM | 91%
COc1ccc(Nc2nnc(-c3cccnc3NCc3ccc4c(c3)OCO4)o2)cc1OC [Compound 180, Benzo[1,3]dioxol-5-ylmethyl-{3-[5-(3,4-dimethoxy-phenylamino)-[1,3,4]oxadiazol-2-yl]-pyridin-2-yl}-amine] | 1.5 µM | 32%
COc1ccc(Nc2nnc(-c3cccnc3Nc3ccc4c(c3)OCO4)[nH]2)cc1 [Compound 8, Benzo[1,3]dioxol-5-yl-{3-[5-(4-methoxy-phenylamino)-4H-[1,2,4]triazol-3-yl]-pyridin-2-yl}-amine] | 0.3 µM | 100%
COc1cc(Nc2ncccc2-c2nnc(Nc3cc(Cl)cc(Cl)c3)[nH]2)cc(OC)c1 [Compound 53, {3-[5-(3,5-Dichloro-phenylamino)-4H-[1,2,4]triazol-3-yl]-pyridin-2-yl}-(3,5-dimethoxy-phenyl)-amine] | 6 µM | 44%
FC(F)(F)c1ccc(-c2nnc(-c3cccnc3NCc3ccc4c(c3)OCO4)[nH]2)cc1 [Compound 84, Benzo[1,3]dioxol-5-ylmethyl-{3-[5-(4-trifluoromethyl-phenyl)-4H-[1,2,4]triazol-3-yl]-pyridin-2-yl}-amine] | 2.5 µM | 27%

Continued, in another order:

GI50 [1] | SMILES | Tubulin Assay: percent inhibition at 10 μM based on 30 minute data (bovine tubulin)
20 µM | COc1cc(Nc2ncccc2-c2nnc(Nc3ccc(OC)cc3OC)[nH]2)cc(OC)c1 [Compound 12, (3,5-Dimethoxy-phenyl)-{3-[5-(2,4-dimethoxy-phenylamino)-4H-[1,2,4]triazol-3-yl]-pyridin-2-yl}-amine] | 46%
25 µM | COc1ccc(OC)c(Nc2nnc(-c3cccnc3Nc3ccc4c(c3)OCO4)[nH]2)c1 [Compound 9, Benzo[1,3]dioxol-5-yl-{3-[5-(2,5-dimethoxy-phenylamino)-4H-[1,2,4]triazol-3-yl]-pyridin-2-yl}-amine] | 47%
100 µM | COc1cc(OC)cc(-c2nnc(-c3ccccc3NCc3ccncc3)[nH]2)c1 [Compound 132, {2-[5-(3,5-Dimethoxy-phenyl)-4H-[1,2,4]triazol-3-yl]-phenyl}-pyridin-4-ylmethyl-amine] | 46%
30 µM | FC(F)(F)Oc1ccc(Nc2nnc(-c3cccnc3NCc3ccc4c(c3)OCO4)o2)cc1 [Compound 179, Benzo[1,3]dioxol-5-ylmethyl-{3-[5-(4-trifluoromethoxy-phenylamino)-[1,3,4]oxadiazol-2-yl]-pyridin-2-yl}-amine] | 28%
100 µM | COc1cccc(Nc2nnc(-c3cccnc3NCc3ccc4c(c3)OCO4)o2)c1 [Compound 186, Benzo[1,3]dioxol-5-ylmethyl-{3-[5-(3-methoxy-phenylamino)-[1,3,4]oxadiazol-2-yl]-pyridin-2-yl}-amine] | 42%
